From PubChem BioAssay AID248 (DTP/NCI, 2004)
Inconclusive results and toxic doses are left out. No stated cut-off is given here; in the data, active means T/C of 150% or more; inactive means T/C below 125%.

Test system: L1210 leukemia ip in BDF1 mice, survival T/C
Assay: NCI In Vivo Anticancer Drug Screen. Data for tumor model L1210 Leukemia (intraperitoneal) in B6D2F1 (BDF1) mice
Conditions: endpoint: mean survival time, higher = longer survival
How it was run: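 Mice bearing the transplanted tumor received compound or vehicle. Survival of the treated group was divided by that of the vehicle-treated control group to give the ratio.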

[1] = dose: 50.0 mg/kg/injection, schedule: Q01DX009 (ip), vehicle: Klucel (hydroxypropylcellulose) (HPC)
[2] = dose: 100.0 mg/kg/injection, schedule: Q01DX009 (ip), vehicle: Klucel (hydroxypropylcellulose) (HPC)
[3] = dose: 100.0 mg/kg/injection, schedule: Q04DX003 (ip), vehicle: saline
[4] = dose: 200.0 mg/kg/injection, schedule: Q04DX003 (ip), vehicle: saline
[5] = dose: 400.0 mg/kg/injection, schedule: Q04DX003 (ip), vehicle: saline
[6] = dose: 100.0 mg/kg/injection, schedule: Q01DX001 (ip), vehicle: carboxymethylcellulose (CMC)
[7] = dose: 50.0 mg/kg/injection, schedule: Q01DX009 (ip), vehicle: saline
[8] = dose: 100.0 mg/kg/injection, schedule: Q01DX001 (ip), vehicle: saline
[9] = dose: 100.0 mg/kg/injection, schedule: Q01DX009 (ip), vehicle: saline
[10] = dose: 200.0 mg/kg/injection, schedule: Q01DX001 (ip), vehicle: saline
[11] = dose: 200.0 mg/kg/injection, schedule: Q01DX009 (ip), vehicle: saline
[12] = dose: 400.0 mg/kg/injection, schedule: Q01DX001 (ip), vehicle: saline
[13] = dose: 400.0 mg/kg/injection, schedule: Q01DX009 (ip), vehicle: saline

Measured: T/C

Cc1cc(=O)[nH][nH]c1=O
inactive: [1] 97 % of control | dose: 50.0 mg/kg/injection, schedule: Q04DX003 (ip), vehicle: Klucel (hydroxypropylcellulose) (HPC) 106 % of control | dose: 100.0 mg/kg/injection, schedule: Q01DX001 (ip), vehicle: saline with Tween-80 95 % of control | [2] 105 % of control | dose: 100.0 mg/kg/injection, schedule: Q04DX003 (ip), vehicle: Klucel (hydroxypropylcellulose) (HPC) 103 % of control | [3] 94 % of control | dose: 200.0 mg/kg/injection, schedule: Q01DX001 (ip), vehicle: saline with Tween-80 92 % of control | dose: 200.0 mg/kg/injection, schedule: Q01DX009 (ip), vehicle: Klucel (hydroxypropylcellulose) (HPC) 101 % of control | dose: 200.0 mg/kg/injection, schedule: Q04DX003 (ip), vehicle: Klucel (hydroxypropylcellulose) (HPC) 101 % of control | [4] 97 % of control | dose: 400.0 mg/kg/injection, schedule: Q01DX001 (ip), vehicle: saline with Tween-80 100 % of control | [5] 97 % of control

CCc1ccc(C2=C(Cl)C(=O)C(c3ccc(CC)cc3)=C(Cl)C2=O)cc1
inactive: dose: 10.0 mg/kg/injection, schedule: Q01DX001 (ip), vehicle: carboxymethylcellulose (CMC) 100 % of control | dose: 20.0 mg/kg/injection, schedule: Q01DX001 (ip), vehicle: carboxymethylcellulose (CMC) 100 % of control | dose: 40.0 mg/kg/injection, schedule: Q01DX001 (ip), vehicle: carboxymethylcellulose (CMC) 102 % of control | dose: 80.0 mg/kg/injection, schedule: Q01DX001 (ip), vehicle: carboxymethylcellulose (CMC) 100 % of control | [6] 88 % of control

CN(C)C(=S)[S][Sb]([c]1ccccc1)[c]1ccccc1
inactive: dose: 100.0 mg/kg/injection, schedule: Q01DX001 (ip), vehicle: other 96 % of control

CC1=NS(=O)(=O)NC(C)(C)C1
inactive: dose: 12.5 mg/kg/injection, schedule: Q01DX009 (ip), vehicle: saline 93 % of control | dose: 25.0 mg/kg/injection, schedule: Q01DX009 (ip), vehicle: saline 93 % of control | dose: 50.0 mg/kg/injection, schedule: Q01DX001 (ip), vehicle: carboxymethylcellulose (CMC) 123 % of control | [7] 98 % of control | [6] 96 % of control | [2] 87 % of control

CC(C)C(Br)C(=O)NCC(=O)O (configuration not stated)
inactive: dose: 100.0 mg/kg/injection, schedule: Q04DX003 (ip), vehicle: saline with Tween-80 102 % of control | dose: 200.0 mg/kg/injection, schedule: Q04DX003 (ip), vehicle: saline with Tween-80 98 % of control | dose: 400.0 mg/kg/injection, schedule: Q04DX003 (ip), vehicle: saline with Tween-80 98 % of control

Cn1cc(NC(=O)c2cc(NC(=O)c3cc(NC=O)cn3C)cn2C)cc1C(=O)NCCC(=N)N
inactive: dose: 12.5 mg/kg/injection, schedule: Q01DX009 (ip), vehicle: Klucel (hydroxypropylcellulose) (HPC) 95 % of control | dose: 25.0 mg/kg/injection, schedule: Q01DX009 (ip), vehicle: Klucel (hydroxypropylcellulose) (HPC) 98 % of control | dose: 25.0 mg/kg/injection, schedule: Q01DX Z (ip), vehicle: water 100 % of control | [1] 92 % of control | dose: 50.0 mg/kg/injection, schedule: Q01DX Z (ip), vehicle: water 104 % of control | dose: 75.0 mg/kg/injection, schedule: Q01DX Z (ip), vehicle: water 104 % of control | dose: 100.0 mg/kg/injection, schedule: Q01DX Z (ip), vehicle: water 100 % of control

COc1nccnc1NS(=O)(=O)c1ccc(N)cc1
inactive: [8] 95 % of control | [9] 92 % of control | [10] 96 % of control | [11] 106 % of control | [12] 102 % of control | [13] 92 % of control

CN(C)[C@@H]1C(=O)C(C(=O)NCNc2nc3n[nH]nc3c(=O)[nH]2)=C(O)[C@@]2(O)C(=O)C3=C(O)c4c(O)cccc4[C@@](C)(O)[C@H]3C[C@@H]12
inactive: dose: 12.5 mg/kg/injection, schedule: Q01DX009 (ip), vehicle: acetone 98 % of control | dose: 25.0 mg/kg/injection, schedule: Q01DX009 (ip), vehicle: acetone 104 % of control | dose: 50.0 mg/kg/injection, schedule: Q01DX009 (ip), vehicle: acetone 122 % of control | [8] 102 % of control | dose: 100.0 mg/kg/injection, schedule: Q01DX009 (ip), vehicle: acetone 117 % of control | [10] 96 % of control | dose: 200.0 mg/kg/injection, schedule: Q01DX009 (ip), vehicle: acetone 122 % of control | [12] 105 % of control

O=C(NOCc1cscn1)Nc1ccccc1
inactive: [8] 101 % of control | [10] 104 % of control | [12] 104 % of control

CSC(N)=Nc1cccc(C)c1C
inactive: [7] 100 % of control | [9] 101 % of control | [3] 97 % of control | [4] 97 % of control

CC(=O)Nc1ccc(C)c([N+](=O)[O-])c1
inactive: [9] 100 % of control | [3] 98 % of control | [11] 93 % of control | [4] 93 % of control | [13] 97 % of control | [5] 102 % of control

O=S1(=O)c2ccccc2C(=NO)c2ccccc21
inactive: dose: 75.0 mg/kg/injection, schedule: Q01DX009 (ip), vehicle: other 98 % of control | [8] 97 % of control | dose: 150.0 mg/kg/injection, schedule: Q01DX009 (ip), vehicle: other 98 % of control | [10] 94 % of control | dose: 300.0 mg/kg/injection, schedule: Q01DX009 (ip), vehicle: other 93 % of control | [12] 97 % of control
